Patent US10370343B2, “[6,6] Fused bicyclic HDAC8 inhibitors” (FORMA Therapeutics, Inc., priority 2015, dated 2019)

target: T1, Recombinant N-terminal GST tag full-length human HDAC8 (Homo sapiens, UniProt Q9BY41); assay: HDAC8 probe binding assay, time resolved fluorescence (TRF) format; conditions: compounds grouped by IC50 range (Table 2)
T1 construct: Recombinant N-terminal GST tag full-length human HDAC8; purchased SignalChem H90-30G-1000; host or cells: baculovirus in Sf9 insect cells
T1 sequence (Q9BY41 1-377): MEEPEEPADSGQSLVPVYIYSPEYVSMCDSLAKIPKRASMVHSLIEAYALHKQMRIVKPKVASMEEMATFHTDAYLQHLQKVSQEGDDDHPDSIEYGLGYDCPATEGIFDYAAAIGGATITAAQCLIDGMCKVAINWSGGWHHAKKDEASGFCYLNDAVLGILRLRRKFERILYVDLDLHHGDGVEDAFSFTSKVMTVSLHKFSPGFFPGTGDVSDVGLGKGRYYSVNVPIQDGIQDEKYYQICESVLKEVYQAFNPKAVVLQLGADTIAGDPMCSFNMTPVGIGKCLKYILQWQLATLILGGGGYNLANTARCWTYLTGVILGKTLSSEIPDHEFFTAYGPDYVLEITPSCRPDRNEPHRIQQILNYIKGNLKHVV
Experimental: The HDAC8 probe binding assay was performed using a time resolved fluorescence (TRF) assay format. Recombinant N-terminal GST tag full-length human HDAC8 was expressed and purified from baculovirus in Sf9 insect cells (SignalChem, #[…]-1000). […] Plates were incubated for 16 hours at room temperature before time resolved fluorescence was read on the Envision (Excitation at 340 nm, and Emission at 485 nm and 535 nm, Perkin Elmer). Data from HDAC8 Assays were reported as percent inhibition (inh) compared with control wells based on the following equation: % inh=1-((FLU-AveLow)/(AveHigh-AveLow)) where FLU=measured time resolved fluorescence. AveLow=average time resolved fluorescence of no enzyme control (n=32). AveHigh=average time resolved fluorescence of DMSO control (n=32). IC50 values were determined by curve fitting of the standard 4 parameter logistic fitting algorithm included in the Activity Base software package: IDBS XE Designer Model205. Data is fitted using the Levenburg Marquardt algorithm. Ranges of IC50 values for compounds of the invention are disclosed in Table 2: Table 2. provides the compounds arranged according to […] determined in a time resolved fluorescence (TRF) assay. The compounds are separated into four groups: […]

IC50, > 1 µM:
CC1(C)Oc2ccc(C(=O)NO)cc2N(Cc2nc(-c3ccccc3)sc2Cc2ccccc2)C1=O [Compound I-309, 4-((5-benzyl-2-phenylthiazol-4-yl)methyl)-N-hydroxy-2,2-dimethyl-3-oxo-3,4-dihydro-2H-benzo[b][1,4]oxazine-6-carboxamide]

IC50, ≤ 0.025 µM:
O=C(NO)c1ccc2c(c1)N(Cc1cc(F)ccc1Cl)C(=O)CO2 [Compound I-352, 4-(2-chloro-5-fluorobenzyl)-N-hydroxy-3-oxo-3,4-dihydro-2H-benzo[b][1,4]oxazine-6-carboxamide]
CC1(C)Oc2ccc(C(=O)NO)cc2N(Cc2cc(-c3ccccc3)on2)C1=O [Compound I-320, N-hydroxy-2,2-dimethyl-3-oxo-4-((5-phenylisoxazol-3-yl)methyl)-3,4-dihydro-2H-benzo[b][1,4]oxazine-6-carboxamide]
O=C(NO)c1ccc2c(c1)N(Cc1ccn3nccc3c1)C(=O)CO2 [Compound I-339, N-hydroxy-3-oxo-4-(pyrazolo[1,5-a]pyridin-5-ylmethyl)-3,4-dihydro-2H-benzo[b][1,4]oxazine-6-carboxamide]
COc1ccc(CN2C(=O)COc3ccc(C(=O)NO)cc32)c(F)c1 [Compound I-341, 4-(2-fluoro-4-methoxybenzyl)-N-hydroxy-3-oxo-3,4-dihydro-2H-benzo[b][1,4]oxazine-6-carboxamide]
O=C(NO)c1ccc2c(c1)N(Cc1cnc3ccccc3c1)C(=O)CO2 [Compound I-333, N-hydroxy-3-oxo-4-(quinoIin-3-ylmethyl)-3,4-dihydro-2H-benzo[b][1,4]oxazine-6-carboxamide]
O=C(NO)c1ccc2c(c1)N(Cc1ccc(-n3cccn3)cc1)C(=O)OC2 [Compound I-166, 1-(4-(1H-pyrazol-1-yl)benzyl)-N-hydroxy-2-oxo-1,4-dihydro-2H-benzo[d][1,3]oxazine-7-carboxamide]
CC(C)(C)OC(=O)N1CCc2cc(CN3C(=O)COc4ccc(C(=O)NO)cc43)ccc2C1 [Compound I-181, tert-butyl 6-((6-(hydroxycarbamoyl)-3-oxo-2,3-dihydrobenzo[b][1,4]oxazin-4-yl)methyl)-3,4-dihydroisoquinoline-2(1H)-carboxylate]
CC1(C)Oc2ccc(C(=O)NO)cc2N(C/C=C/c2ccccc2)C1=O [Compound I-318, 4-cinnamyl-N-hydroxy-2,2-dimethyl-3-oxo-3,4-dihydro-2H-benzo[b][1,4]oxazine-6-carboxamide]
N#Cc1c(CN2C(=O)COc3ccc(C(=O)NO)cc32)cn2ccccc12 [Compound I-201, 4-((1-cyanoindolizin-2-yl)methyl)-N-hydroxy-3-oxo-3,4-dihydro-2H-benzo[b][1,4]oxazine-6-carboxamide]
O=C(NO)c1ccc2c(c1)N(Cc1ccc3ccncc3c1)C(=O)CO2 [Compound I-337, N-hydroxy-4-(isoquinolin-7-ylmethyl)-3-oxo-3,4-dihydro-2H-benzo[b][1,4]oxazine-6-carboxamide]
O=C(NO)c1ccc2c(c1)N(Cc1nc3ccc(C(F)(F)F)cc3o1)C(=O)CO2 [Compound I-233, N-hydroxy-3-oxo-4-((6-(trifluoromethyl)benzo[d]oxazol-2-yl)methyl)-3,4-dihydro-2H-benzo[b][1,4]oxazine-6-carboxamide]
Cc1nc2ccc(CN3C(=O)COc4ccc(C(=O)NO)cc43)cc2o1 [Compound I-239, N-hydroxy-4-((2-methylbenzo[d]oxazol-6-yl)methyl)-3-oxo-3,4-dihydro-2H-benzo[b][1,4]oxazine-6-carboxamide]
Cc1cnc2sc(CN3C(=O)COc4ccc(C(=O)NO)cc43)nc2c1 [Compound I-207, N-hydroxy-4-((6-methylthiazolo[5,4-b]pyridin-2-yl)methyl)-3-oxo-3,4-dihydro-2H-benzo[b][1,4]oxazine-6-carboxamide]
O=C(NO)c1ccc2c(c1)N(Cc1cc(F)cc(Cl)c1)C(=O)CO2 [Compound I-343, 4-(3-chloro-5-fluorobenzyl)-N-hydroxy-3-oxo-3,4-dihydro-2H-benzo[b][1,4]oxazine-6-carboxamide]
Cc1cc2oc(CN3C(=O)COc4ccc(C(=O)NO)cc43)nc2cc1Cl [Compound I-261, 4-((5-chloro-6-methylbenzo[d]oxazol-2-yl)methyl)-N-hydroxy-3-oxo-3,4-dihydro-2H-benzo[b][1,4]oxazine-6-carboxamide]

IC50, 0.025 to 0.1 µM:
O=C(NO)c1ccc2c(c1)N(Cc1cc(Cl)cc(C(F)(F)F)c1)C(=O)CO2 [Compound I-349, 4-(3-chloro-5-(trifluoromethyl)benzyl)-N-hydroxy-3-oxo-3,4-dihydro-2H-benzo[b][1,4]oxazine-6-carboxamide]
CC1(C)Oc2ccc(C(=O)NO)cc2N(CCCc2ccccc2)C1=O [Compound I-298, N-hydroxy-2,2-dimethyl-3-oxo-4-(3-phenylpropyl)-3,4-dihydro-2H-benzo[b][1,4]oxazine-6-carboxamide]
Cc1cccc2nc(CN3C(=O)COc4ccc(C(=O)NO)cc43)cc(=O)n12 [Compound I-327, N-hydroxy-4-((6-methyl-4-oxo-4H-pyrido[1,2-a]pyrimidin-2-yl)methyl)-3-oxo-3,4-dihydro-2H-benzo[b][1,4]oxazine-6-carboxamide]
O=C(NO)c1ccc2c(c1)N(CC1CCc3ccccc3O1)C(=O)CO2 (racemic) [Compound I-184, (+/−)-4-(chroman-2-ylmethyl)-N-hydroxy-3-oxo-3,4-dihydro-2H-benzo[b][1,4]oxazine-6-carboxamide]
O=C(NO)c1cc(F)c2c(c1)N(Cc1ccc(-n3cccn3)cc1)C(=O)CO2 [Compound I-164, 4-(4-(1H-pyrazol-1-yl)benzyl)-8-fluoro-N-hydroxy-3-oxo-3,4-dihydro-2H-benzo[b][1,4]oxazine-6-carboxamide]
COc1ccc(CN2CC(C(=O)NC3CCOCC3)Oc3ccc(C(=O)NO)cc32)cc1 (centres unmarked) [Compound I-172, N6-hydroxy-4-(4-methoxybenzyl)-N2-(tetrahydro-2H-pyran-4-yl)-3,4-dihydro-2H-benzo[b][1,4]oxazine-2,6-dicarboxamide]
COc1cc(F)cc(CN2C(=O)COc3ccc(C(=O)NO)cc32)c1 [Compound I-342, 4-(3-fluoro-5-methoxybenzyl)-N-hydroxy-3-oxo-3,4-dihydro-2H-benzo[b][1,4]oxazine-6-carboxamide]
COc1cc(CN2C(=O)COc3ccc(C(=O)NO)cc32)ccc1F [Compound I-353, 4-(4-fluoro-3-methoxybenzyl)-N-hydroxy-3-oxo-3,4-dihydro-2H-benzo[b][1,4]oxazine-6-carboxamide]
O=C(NO)c1ccc2c(c1)N(Cc1cn3ccsc3n1)C(=O)CO2 [Compound I-363, N-hydroxy-4-(imidazo[2,1-b]thiazol-6-ylmethyl)-3-oxo-3,4-dihydro-2H-benzo[b][1,4]oxazine-6-carboxamide]
O=C(NO)c1ccc2c(c1)N(Cc1nc3ccc(C(F)(F)F)nc3s1)C(=O)CO2 [Compound I-212, N-hydroxy-3-oxo-4-((5-(trifluoromethyl)thiazolo [5,4-b]pyridin-2-yl)methyl)-3,4-dihydro-2H-benzo[b][1,4]oxazine-6-carboxamide]
